Laboratory results: PMC8496750, “Identification of the organic anion transporting polypeptides responsible for the hepatic uptake of the major metabolite of epyrifenacil, S‐3100‐CA, in mice” (Pharmacology Research & Perspectives, 2021)

Legend:
mitochondrial PPO = tested on: mitochondrial PPO; parameters: method as in PMID 34908893; settings: cited from earlier work
[1] = ^14C‐plasma, liver, and kidney distribution study with or without OATP inhibitors; format: in vivo, Crl:CD1(ICR) mice; settings: for Kidney/plasma ratio of ^14C / Liver/plasma ratio of ^14C / ^14C‐concentration in liver: 2 h; for Liver/plasma ratio of ^14C‐concentration: oral or intraperitoneal co‐administration of DGX
Procedure: Crl:CD1(ICR) mice at the age of 7 weeks were purchased from Charles River Laboratories Japan, Inc., Hino Breeding Center. The mice at the age of 8 or 9 weeks were dosed after completing a 7‐day quarantine period and an additional 0‐ to 7‐day acclimatization period. All animal experiments were conducted in accordance with the Guidance for the Care and Use of Laboratory Animals in our laboratory, which corresponds to the Guidelines for Proper Conduct of Animal Experiments (Science Council of Japan). Animals were maintained under constant environmental conditions: room temperature, 21−25°C; relative humidity, 55% ±15%; ventilation, 10 air exchanges per hour; and artificial lighting, from 8:00 am to 8:00 pm. The animals were provided with pelleted diet and water ad libitum. […] All animals were euthanized by bleeding from the abdominal artery under anesthesia.
[^14C]Epyrifenacil was isotopically diluted with the unlabeled test compound to adjust the specific activity to 5.00 MBq/mg. After evaporation of the solvent under nitrogen gas flow, labeled material was suspended in 0.5% (w/v) methylcellulose solution at a concentration of 1 mg/5 ml by grinding in a mortar. The suspension was stored frozen until the start of dosing. The radiochemical purity of the dosing suspension was analyzed by radio‐HPLC and was confirmed to be >99%. […] These dosing suspensions were stored in a refrigerator until dosing commenced.
Three mice per sex at 8 weeks old were given a single oral dose of [^14C]epyrifenacil at 1 mg/kg with or without co‐administration of OATP inhibitors. […] At 2 h after administration of [^14C]epyifenacil, the animals were euthanized by whole blood collection from the abdominal aorta under anesthesia with isoflurane. The sampling time point was selected as the time around T max based on the result of the blood ^14C‐concentration study. Then, the liver and kidney were dissected out, and the amount of ^14C was measured. Aliquots of heparinized blood samples were separated into blood cells and plasma by centrifugation at 2000g for 10 min at 4°C. The total weight of the liver and kidney was determined for each animal. Two aliquots of plasma and tissue samples (approximately 0.05–0.1 g) were weighed in a glass vial, and the radioactivity was measured.

[2] = Female, epyrifenacil 1 mg/kg p.o. + Digoxin 100 mg/kg i.p.
[3] = Female, epyrifenacil 1 mg/kg p.o. + Digoxin 200 mg/kg p.o.
[4] = Female, epyrifenacil 1 mg/kg p.o. + Rifampicin 200 mg/kg p.o.
[5] = Female, epyrifenacil 1 mg/kg p.o., no inhibitor
[6] = Female, 2 h after epyrifenacil 1 mg/kg p.o. + Digoxin 100 mg/kg i.p.
[7] = Female, 2 h after epyrifenacil 1 mg/kg p.o. + Digoxin 100 mg/kg i.p., listed as [^14C]Epyrifenacil
[8] = Female, 2 h after epyrifenacil 1 mg/kg p.o. + Digoxin 200 mg/kg p.o.
[9] = Female, 2 h after epyrifenacil 1 mg/kg p.o. + Digoxin 200 mg/kg p.o., listed as [^14C]Epyrifenacil
[10] = Female, 2 h after epyrifenacil 1 mg/kg p.o. + Rifampicin 200 mg/kg p.o.
[11] = Female, 2 h after epyrifenacil 1 mg/kg p.o. + Rifampicin 200 mg/kg p.o., listed as [^14C]Epyrifenacil
[12] = Female, 2 h after epyrifenacil 1 mg/kg p.o., no inhibitor
[13] = Female, 2 h after epyrifenacil 1 mg/kg p.o., no inhibitor, listed as [^14C]Epyrifenacil
[14] = Male, epyrifenacil 1 mg/kg p.o. + Digoxin 100 mg/kg i.p.
[15] = Male, epyrifenacil 1 mg/kg p.o. + Digoxin 200 mg/kg p.o.
[16] = Male, epyrifenacil 1 mg/kg p.o. + Rifampicin 200 mg/kg p.o.
[17] = Male, epyrifenacil 1 mg/kg p.o., no inhibitor
[18] = Male, 2 h after epyrifenacil 1 mg/kg p.o. + Digoxin 100 mg/kg i.p.
[19] = Male, 2 h after epyrifenacil 1 mg/kg p.o. + Digoxin 100 mg/kg i.p., listed as [^14C]Epyrifenacil
[20] = Male, 2 h after epyrifenacil 1 mg/kg p.o. + Digoxin 200 mg/kg p.o.
[21] = Male, 2 h after epyrifenacil 1 mg/kg p.o. + Digoxin 200 mg/kg p.o., listed as [^14C]Epyrifenacil
[22] = Male, 2 h after epyrifenacil 1 mg/kg p.o. + Rifampicin 200 mg/kg p.o.
[23] = Male, 2 h after epyrifenacil 1 mg/kg p.o. + Rifampicin 200 mg/kg p.o., listed as [^14C]Epyrifenacil
[24] = Male, 2 h after epyrifenacil 1 mg/kg p.o., no inhibitor
[25] = Male, 2 h after epyrifenacil 1 mg/kg p.o., no inhibitor, listed as [^14C]Epyrifenacil

Cn1c(C(F)(F)F)cc(=O)n(-c2cc(Oc3cccnc3OCC(=O)O)c(Cl)cc2F)c1=O [S‐3100‐CA]
PPO inhibitory activity (in words) (mitochondrial PPO; PPO inhibition study): comparable inhibitory activity to that of the parent epyrifenacil | Inhibitory activity against mitochondrial PPO, mice relative to humans (mitochondrial PPO; higher in mice than in humans): 10 times

CCOC(=O)COc1ncccc1Oc1cc(-n2c(=O)cc(C(F)(F)F)n(C)c2=O)c(F)cc1Cl [Epyrifenacil, ethyl[(3‐{2‐chloro‐4‐fluoro‐5‐[3‐methyl‐2,6‐dioxo‐4‐(trifluoromethyl)‐3,6‐dihydropyrimidin‐1(2H)‐yl]phenoxy}pyridin‐2‐yl)oxy]acetate]
Kidney/plasma ratio of ^14C [1, 2]: (2.2) | Liver/plasma ratio of ^14C [1, 2]: (41) | Kidney/plasma ratio of ^14C [1, 3]: (1.6) | Liver/plasma ratio of ^14C [1, 3]: (43) | Liver/plasma ratio of ^14C ([1]; Female, epyrifenacil 1 mg/kg p.o. + Digoxin 200 mg/kg p.o., listed as [^14C]epyrifenacil): ca. 43 | Kidney/plasma ratio of ^14C [1, 4]: (0.60) | Liver/plasma ratio of ^14C [1, 4]: (4.0) | Liver/plasma ratio of ^14C ([1]; Female, epyrifenacil 1 mg/kg p.o. + Rifampicin 200 mg/kg p.o., listed as [^14C]epyrifenacil): ~4 | Kidney/plasma ratio of ^14C [1, 5]: (1.3) | Liver/plasma ratio of ^14C [1, 5]: (35) | Liver/plasma ratio of ^14C ([1]; Female, epyrifenacil 1 mg/kg p.o., no inhibitor, listed as [^14C]epyrifenacil): ~35 | ^14C‐Concentration, Kidney [1, 6]: 0.184 ± 0.0360 μg eq. of epyrifenacil/g tissue | ^14C‐Concentration, Liver [1, 6]: 3.390 ± 1.9870 μg eq. of epyrifenacil/g tissue | ^14C‐Concentration, Plasma [1, 6]: 0.082 ± 0.0574 μg eq. of epyrifenacil/g tissue | ^14C‐Concentration, Kidney [1, 7]: 0.184 μg eq. of epyrifenacil/g tissue | ^14C‐Concentration, Liver [1, 7]: 3.390 μg eq. of epyrifenacil/g tissue | ^14C‐Concentration, Plasma [1, 7]: 0.082 μg eq. of epyrifenacil/g tissue | ^14C‐Concentration, Kidney [1, 8]: 0.086 ± 0.0096 μg eq. of epyrifenacil/g tissue | ^14C‐Concentration, Liver [1, 8]: 2.344 ± 0.4524 μg eq. of epyrifenacil/g tissue | ^14C‐Concentration, Plasma [1, 8]: 0.054 ± 0.0118 μg eq. of epyrifenacil/g tissue | ^14C‐Concentration, Kidney [1, 9]: 0.086 μg eq. of epyrifenacil/g tissue | ^14C‐Concentration, Liver [1, 9]: 2.344 μg eq. of epyrifenacil/g tissue | ^14C‐Concentration, Plasma [1, 9]: 0.054 μg eq. of epyrifenacil/g tissue | ^14C‐Concentration, Kidney [1, 10]: 0.130 ± 0.0548 μg eq. of epyrifenacil/g tissue | ^14C‐Concentration, Liver [1, 10]: 0.880 ± 0.4160 μg eq. of epyrifenacil/g tissue | ^14C‐Concentration, Plasma [1, 10]: 0.217 ± 0.1551 μg eq. of epyrifenacil/g tissue | ^14C‐Concentration, Kidney [1, 11]: 0.130 μg eq. of epyrifenacil/g tissue | ^14C‐Concentration, Liver [1, 11]: 0.880 μg eq. of epyrifenacil/g tissue | ^14C‐Concentration, Plasma [1, 11]: 0.217 μg eq. of epyrifenacil/g tissue | ^14C‐Concentration, Kidney [1, 12]: 0.190 ± 0.0511 μg eq. of epyrifenacil/g tissue | ^14C‐Concentration, Liver [1, 12]: 5.136 ± 1.1225 μg eq. of epyrifenacil/g tissue | ^14C‐Concentration, Plasma [1, 12]: 0.147 ± 0.0642 μg eq. of epyrifenacil/g tissue | ^14C‐Concentration, Kidney [1, 13]: 0.190 μg eq. of epyrifenacil/g tissue | ^14C‐Concentration, Liver [1, 13]: 5.136 μg eq. of epyrifenacil/g tissue | ^14C‐Concentration, Plasma [1, 13]: 0.147 μg eq. of epyrifenacil/g tissue | Kidney/plasma ratio of ^14C [1, 14]: (1.7) | Liver/plasma ratio of ^14C [1, 14]: (67) | Kidney/plasma ratio of ^14C [1, 15]: (2.6) | Liver/plasma ratio of ^14C [1, 15]: (97) | Liver/plasma ratio of ^14C ([1]; Male, epyrifenacil 1 mg/kg p.o. + Digoxin 200 mg/kg p.o., listed as [^14C]epyrifenacil): ca. 97 | Kidney/plasma ratio of ^14C [1, 16]: (0.96) | Liver/plasma ratio of ^14C [1, 16]: (11) | Kidney/plasma ratio of ^14C [1, 17]: (1.3) | Liver/plasma ratio of ^14C [1, 17]: (73) | Liver/plasma ratio of ^14C ([1]; Male, epyrifenacil 1 mg/kg p.o., no inhibitor, listed as [^14C]epyrifenacil): ca. 73 | ^14C‐Concentration, Kidney [1, 18]: 0.140 ± 0.0527 μg eq. of epyrifenacil/g tissue | ^14C‐Concentration, Liver [1, 18]: 5.527 ± 1.3453 μg eq. of epyrifenacil/g tissue | ^14C‐Concentration, Plasma [1, 18]: 0.083 ± 0.0027 μg eq. of epyrifenacil/g tissue | ^14C‐Concentration, Kidney [1, 19]: 0.140 μg eq. of epyrifenacil/g tissue | ^14C‐Concentration, Liver [1, 19]: 5.527 μg eq. of epyrifenacil/g tissue | ^14C‐Concentration, Plasma [1, 19]: 0.083 μg eq. of epyrifenacil/g tissue | ^14C‐Concentration, Kidney [1, 20]: 0.044 ± 0.0051 μg eq. of epyrifenacil/g tissue | ^14C‐Concentration, Liver [1, 20]: 1.647 ± 0.7217 μg eq. of epyrifenacil/g tissue | ^14C‐Concentration, Plasma [1, 20]: 0.017 ± 0.0064 μg eq. of epyrifenacil/g tissue | ^14C‐Concentration, Kidney [1, 21]: 0.044 μg eq. of epyrifenacil/g tissue | ^14C‐Concentration, Liver [1, 21]: 1.647 μg eq. of epyrifenacil/g tissue | ^14C‐Concentration, Plasma [1, 21]: 0.017 μg eq. of epyrifenacil/g tissue | ^14C‐Concentration, Kidney [1, 22]: 0.144 ± 0.0794 μg eq. of epyrifenacil/g tissue | ^14C‐Concentration, Liver [1, 22]: 1.671 ± 1.2478 μg eq. of epyrifenacil/g tissue | ^14C‐Concentration, Plasma [1, 22]: 0.151 ± 0.0791 μg eq. of epyrifenacil/g tissue | ^14C‐Concentration, Kidney [1, 23]: 0.144 μg eq. of epyrifenacil/g tissue | ^14C‐Concentration, Liver [1, 23]: 1.671 μg eq. of epyrifenacil/g tissue | ^14C‐Concentration, Plasma [1, 23]: 0.151 μg eq. of epyrifenacil/g tissue | ^14C‐Concentration, Kidney [1, 24]: 0.124 ± 0.0180 μg eq. of epyrifenacil/g tissue | ^14C‐Concentration, Liver [1, 24]: 6.763 ± 0.1014 μg eq. of epyrifenacil/g tissue | ^14C‐Concentration, Plasma [1, 24]: 0.092 ± 0.0066 μg eq. of epyrifenacil/g tissue | ^14C‐Concentration, Kidney [1, 25]: 0.124 μg eq. of epyrifenacil/g tissue | ^14C‐Concentration, Liver [1, 25]: 6.763 μg eq. of epyrifenacil/g tissue | ^14C‐Concentration, Plasma [1, 25]: 0.092 μg eq. of epyrifenacil/g tissue | Liver/plasma ratio of ^14C‐concentration ([1]; female): 41–43 | ^14C‐concentration in liver ([1]; females, co‐administration of RIF 200 mg/kg oral): 0.880 ppm | ^14C‐concentration in liver ([1]; females, epyrifenacil 1 mg/kg p.o., no inhibitor): 5.136 ± 1.1225 ppm | Liver/plasma ratio of ^14C‐concentration ([1]; male): 67–97 | ^14C‐concentration in liver ([1]; males, co‐administration of RIF 200 mg/kg oral): 1.671 ppm | ^14C‐concentration in liver ([1]; males, epyrifenacil 1 mg/kg p.o., no inhibitor, ppm = µg eq. of epyrifenacil/g): 6.763 ± 0.1014 ppm
